From US20240335404A1, “SUBSTITUTED ESTERS CONTAINING POLYOLS AND SACCHARIDES FOR TREATING HEPATOTOXICITY AND FATTY LIVER DISEASES” (SINEW PHARMA INC., priority 2015, published 2024)

Key:
[1] = test system: Liver Injuries Induced by APAP; assay: Liver injuries induced by APAP in rats (GSP, AST/ALT, HAI, survival); format: in vivo, SD (Sprague-Dawley) rats; details: APAP 2,000 mg/kg; for histological analysis of liver tissue, H&E: FIG. 4
Description: Male SD (Sprague-Dawley) rats weighing 175-280 g were purchased from the National Laboratory Animal Center (NLAC), Taiwan. The study was conducted in accordance with the Guidelines for Conducting Animal Studies of the National Health Research Institute and all rats were placed in the air/humidity controlled environment under the 12 hours of day/12 hours of night cycle and with unlimited water and food supply. During the course of the study, the weights of rats were monitored continuously with normal water supply.
In the normal control (Group 1), animals were not fed with APAP. In the control group of APAP-induced liver injuries (Group 2), animals were fed with a single dose of APAP in the amount of 2,000 mg per kilogram of body weight to induce hepatotoxicity. In the positive control group of treatment with NAC (Group 3), animals were fed with a single dose of APAP in the amount of 2,000 mg per kilogram of body weight to induce hepatotoxicity, and 4 hours later, a 24-hour treatment period by tube feeding was started, including first administration of 140 mg of NAC (per kilogram of body weight) and later administration of 70 mg of NAC (per kilogram of body weight) every 4 hours for five times. In the experimental group (Group 4), animals were fed with a single dose of APAP in the amount of 2,000 mg per kilogram of body weight to induce hepatotoxicity, and 4 hours later, a 24-hour treatment period by tube feeding was started, including six dosing with the ingredients of the present invention every 4 hours, as follows: • (a) (Group 4.1): administration of mannitol at a dose less than or equivalent to 100 mg per person every 4 hours for 24 hours, • (b) (Group 4.2): administration of double dose of mannitol as in Group 4.1 every 4 hours for 24 hours, • (c) (Group 4.3): administration of sucralose at a dose less than or equivalent to 100 mg per person every 4 hours for 24 hours, • (d) (Group 4.4): administration of double dose of sucralose of Group 4.3 every 4 hours for 24 hours, • (e) (Group 4.5): administration of a combination of 0.5 times the dose of mannitol as in Group 4.1 and 0.5 times the dose of sucralose as in Group 4.3 per kilogram of body weight every 4 hours for 24 hours, • (f) (Group 4.6): administration of a combination of the dose of mannitol as in Group 4.1 and the dose of sucralose as in Group 4.3 every 4 hours for 24 hours, • (g) (Group 4.7): administration of a combination of 1.5 times the dose of mannitol as in Group 4.1 and 1.5 times the dose of sucralose as in Group 4.3 every 4 hours for 24 hours, • (h) (Group 4.8): administration of a combination of double dose of mannitol as in Group 4.1 and double dose of sucralose as in Group 4.3 every 4 hours for 24 hours, and • (i) (Group 4.9): first administration of 140 mg of NAC per kilogram of body weight and later administration of a combination of 70 mg of NAC plus double dose of mannitol as in Group 4.1 and double dose of sucralose as in Group 4.3 every 4 hours for five times.
After the 24-hour treatment period, blood was collected from the tail artery of the rats for AST/SLT assays. Subsequently, rats were subjected to GSP tests. Finally, rats were sacrificed and histological analysis was performed.
After completion of the treatments, rats were sacrificed under ether anesthesia, and blood was collected from the tail artery of the rats and placed in a test tube containing EDTA. The plasma was centrifuged at 13,000 at 4° C. for 15 minutes and the isolated plasma was transferred to Eppendorf tubes in aliquots and stored at −80° C.
(§1) Liver damage is quantified by measuring plasma AST and ALT activity. AST and ALT are common indicators of hepatotoxicity and are measured by using the Synchron LXi 725 system (Beckman Instruments, U.S.).
Following scarification of the rats, histological analysis was performed.

[2] = test system: Liver Injuries Induced by CCl4; assay: Liver injuries induced by CCl4 in mice (GSP, AST/ALT, HAI); format: in vivo
Description: In the normal control, animals were administered with normal saline by intraperitoneal injection. In the control group of CCl4 induced liver injuries, animals were intraperitoneally injected with 10 ml/kg CCl4 (40% in corn oil) to induce hepatotoxicity. In the experimental group, animals were intraperitoneally injected with 10 ml/kg CCl4 (40% in corn oil) to induce hepatotoxicity, and 4 hours later, different ingredients of the present invention were administered by tube feeding. Blood was collected from the mice before administration with the ingredients of the present invention or at 24 hours after administration with the ingredients of the present invention for AST/ALT assays. Finally, animals were sacrificed at day 2 and blood were collected for AST/ALT assay and histological analysis was performed.
On the other hand, other experimental groups of mice were fed with the ingredients of the present invention for 12 weeks and the mice were subjected to GSP tests.
as §1
Following scarification of the rats, histological analysis was performed. Liver samples were fixed with 10% phosphate-buffered formalin, dehydrated an embedded in paraffin, Sections were prepared in 5 μm thickness and then stained with hematoxylin and eosin and subjected to Periodic acid Schiff stain (PAS). The stained sections were observed under the optic microscope.
After the study was completed, all rats were subjected to GSP test. Rats were i.v. injected with 0.4 g/ml BW galactose solution 0.5 g/kg within 30 seconds and one blood sample was collected at 5, 10, 15, 30, 45 and 60 minutes post injection from the tail vein. Colorimetric galactose dehydrogenase is used to quantify the concentration of galactose and the test concentration ranges from 50 to 1,000 μg/ml. The within-day variation of each concentration is calculated using standard deviation and coefficient of variation (CV) and the maximum allowable coefficient of variation is 10% CV, whereas day-to-day variation is examined by comparing the slope and intercept of calibration curves. The GSP is the blood galactose concentration obtained 60 seconds after stopping the 30-second injection.
All data are represented in mean±standard deviation (SD) and the results are calculated using ANOVA to determine the significance. Statistical Package of the Social Science program (Version 13, SPSS Inc.) is used for calculations followed by post hoc test to examine the least significant difference for multiple comparisons so as to confirm the significant differences between groups and the average difference between groups was significant p<0.05.

[3] = dose less than or equivalent to 100 mg per person (mannitol, sucralose: × 6)
[4] = dose less than or equivalent to 100 mg per person (mannitol, sucralose: × 6), Day 14
[5] = double dose of Group 4.1 / Group 4.3, × 6
[6] = double dose of Group 4.1 / Group 4.3, × 6, Day 14
[7] = CCl4-induced liver injuries, dose less than or equivalent to 100 mg per person

SMILES	effect on APAP-induced liver injuries and survival rate [1]	histological analysis of liver tissue, H&E [1]	ALT [1, 3]	AST [1, 3]	GSP [1, 3]	Total HAI score [1, 3]	Survival (Day 14, n/n) [1, 4]	ALT [1, 5]	AST [1, 5]	GSP [1, 5]	Total HAI score [1, 5]	Survival (Day 14, n/n) [1, 6]	ALT [2, 7]	AST [2, 7]	GSP [2, 7]	Total HAI score [2, 7]	effect on CCl4-induced liver injuries ([2]; mice, CCl4)
OC[C@@H](O)[C@@H](O)[C@H](O)[C@H](O)CO [Mannitol]	liver injuries and survival rate can be improved	hepatocytes are relatively intact with visible nucleus and less vacuolization	209 ± 16 IU/L	455 ± 78 IU/L	565 ± 177 mg/L	4.0 ± 0.0	1/3	166 ± 15 IU/L	300 ± 40 IU/L	354 ± 56 mg/L	4.0 ± 1.0	3/3	77 ± 22 IU/L	91 ± 28 IU/L	290 ± 78 mg/L	0.8 ± 0.5	liver injuries can be improved
OC[C@H]1O[C@H](O[C@]2(CCl)O[C@H](CCl)[C@@H](O)[C@@H]2O)[C@H](O)[C@@H](O)[C@H]1Cl [Sucralose]	liver injuries and survival rate can be improved	hepatocytes are relatively intact with visible nucleus and less vacuolization	154 ± 49 IU/L	331 ± 41 IU/L	332 ± 42 mg/L	4.0 ± 1.0	3/3	136 ± 48 IU/L	277 ± 78 IU/L	309 ± 54 mg/L	3.0 ± 1.0	3/3					
